{"source": "ChEMBL document CHEMBL4765227", "about": "“Hit to lead optimization of a series of N-[4-(1,3-benzothiazol-2-yl)phenyl]acetamides as monoacylglycerol lipase inhibitors with potential anticancer activity” (Eur J Med Chem, 2016)", "key": {"[1]": {"molecular_target": "T1, Monoglyceride lipase (Homo sapiens, UniProt Q99685)", "T1 sequence (Q99685 whole entry)": "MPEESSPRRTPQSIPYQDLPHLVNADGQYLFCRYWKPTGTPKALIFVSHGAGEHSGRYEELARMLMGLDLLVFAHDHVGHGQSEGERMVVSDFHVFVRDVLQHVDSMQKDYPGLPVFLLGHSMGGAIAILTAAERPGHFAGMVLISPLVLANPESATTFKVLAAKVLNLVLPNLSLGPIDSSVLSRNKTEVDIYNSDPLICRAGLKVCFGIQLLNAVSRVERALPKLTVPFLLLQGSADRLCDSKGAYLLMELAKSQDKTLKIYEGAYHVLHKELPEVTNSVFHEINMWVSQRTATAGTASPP", "experiment": "Inhibition of human MAGL"}, "[2]": {"molecular_target": "T1, Monoglyceride lipase", "experiment": "Inhibition of human MAGL transfected in human HEK293T cells assessed as reduction in ABPP binding by competitive binding assay", "type": "cell-based"}, "[3]": {"molecular_target": "T1, Monoglyceride lipase", "experiment": "Inhibition of MAGL (unknown origin)"}, "[4]": {"molecular_target": "T1, Monoglyceride lipase", "experiment": "Inhibition of human MAGL using 4-Nitrophenylacetate as substrate"}}, "data": [{"compound": "O=C(N1CCC(C(c2ccc3c(c2)OCO3)c2ccc3c(c2)OCO3)CC1)n1cncn1", "values": [{"measurement": "IC50", "setting": "[1]", "result": "< 0.4", "unit": "nM"}]}, {"compound": "O=C(OC(C(F)(F)F)C(F)(F)F)N1CCC(C(O)(c2ccc3c(c2)OCO3)c2ccc3c(c2)OCO3)CC1", "values": [{"measurement": "IC50", "setting": "[2]", "result": 5.9, "unit": "nM"}]}, {"compound": "CCCCNC(=O)Oc1ccc(C2=NCCS2)cc1", "values": [{"measurement": "IC50", "setting": "[3]", "result": 31000, "unit": "nM"}]}, {"compound": "O=C(CNc1ccc([N+](=O)[O-])cc1)Nc1ccc(-c2nc3ccccc3s2)cc1", "values": [{"measurement": "IC50", "setting": "[4]", "result": "> 100000", "unit": "nM"}]}, {"compound": "CN(C)C(=O)n1nnc(Cc2ccc(-c3ccccc3)cc2)n1", "values": [{"measurement": "IC50", "setting": "[3]", "result": 0.9, "unit": "nM"}]}, {"compound": "COc1nn(-c2ccc(NC(=O)OCc3ccccc3)c(C)c2)c(=O)o1", "values": [{"measurement": "IC50", "setting": "[4]", "result": 424, "unit": "nM"}]}, {"compound": "O=C(Nc1cccc(-c2ccccc2)c1)OC1CCCCC1", "values": [{"measurement": "IC50", "setting": "[3]", "result": 28000, "unit": "nM"}]}]}
